The text below walks through data of US6818228B1 (priority 1996, dated 2004).

For data set [1] the following is noted: B.E.T.
For data set [2] the following is noted: helium displacement.
Data set [3] can be described thus: Bulk density (tapped cylinder). Conditions: nearly dry material before granulation.

Consider `O.O.O.O.O=C([O-])CC(O)(CC(=O)[O-])C(=O)[O-].O=C([O-])CC(O)(CC(=O)[O-])C(=O)[O-].[Ca+2].[Ca+2].[Ca+2]` [Pfizer calcium citrate tetrahydrate, calcium citrate tetrahydrate], for which the surface area entry in data set [1] is recorded as “about 10 m^2/g”. For the same compound, the true density entry in data set [2] is recorded as “about 2.0 g/cc”.
For the compound `O=C([O-])CC(O)(CC(=O)[O-])C(=O)[O-].O=C([O-])CC(O)(CC(=O)[O-])C(=O)[O-].[Ca+2].[Ca+2].[Ca+2]` [calcium citrate], the “density (bulk)” value in data set [3] is reported as 1.1-1.2 g/cc. In data set [1], the “surface area as fraction of that of commercial calcium citrate tetrahydrate” value is 1/10.
